According to patent US8232240B2, “Inhibitors of enveloped virus infectivity” (priority 2005, dated 2012):
Entries after “also recorded” stand apart in the source; their conditions may differ. Where a SMILES comes first, the peptide text is derived from it. The star is where a group is joined. Cbz = O=C(OCc1ccccc1)*; CHN2 = [N-]=[N+]=C*; tBu = CC(C)(C)*

Columns and labels:
[1] = tested on: Marburg (Musoke strain) virus; format: cell-based
[2] = tested on: VSV G; format: cell-based, vesicular stomatitis virus (VSV)
[3] = tested on: CatB; format: cell-based
[4] = tested on: Marburg-GP; format: cell-based, Marburg virus
[5] = tested on: EboV Zaire GP; format: cell-based
[6] = tested on: EboV-Zaire (1995 strain); format: cell-based
[7] = tested on: Sudan GPΔMuc; format: cell-based, Ebola Sudan
[8] = tested on: Reston GPΔMuc; format: cell-based, Ebola Reston
[9] = molecular target: T1, CatL (Chlorocebus aethiops, UniProt Q9GKL8); format: cell-based
T1 construct: CatB and Cathepsin L (CatL) enzymatic activities in CA074-treated cells; endogenous in cells; host or cells: Vero cells
T1 sequence (Q9GKL8 114-333): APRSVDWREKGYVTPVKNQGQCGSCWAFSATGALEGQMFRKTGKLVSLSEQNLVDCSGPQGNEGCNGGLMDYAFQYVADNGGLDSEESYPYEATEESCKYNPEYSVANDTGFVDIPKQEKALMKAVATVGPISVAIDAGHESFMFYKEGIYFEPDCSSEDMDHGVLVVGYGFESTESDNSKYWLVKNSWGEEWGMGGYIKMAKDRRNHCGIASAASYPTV

[10] = tested on: Cote d'Ivoire GPΔMuc; format: cell-based, Ebola Cote d'Ivoire
[11] = tested on: cell-cell fusion mediated by Nipah virus glycoproteins F and G; format: cell-based; conditions: 24 hours

Row | SMILES | inhibition of growth of Marburg virus on Vero cells [1] | VSV G-dependent infection [2] | approximate level of cellular CatB activity (B %) [3] [%] | infectivity of Marburg [4] | EboV GP-dependent infection of Vero cells [5] | block of infection, Ebola Zaire [5] [%] | reduction of infection in the absence of detectable CatB activity [5] [%] | expression of cell-associated GP1 [6] | inhibition of infection, Sudan [7] [%] | infectivity of Reston [8] | approximate level of cellular CatL activity (L %) [9] [%] | block of infection, Cote d'Ivoire [10] [%] | inhibition of CatB activity [3] | infection, Marburg [4] | infection, Zaire [5] | cell-cell fusion by Nipah virus glycoproteins (syncytia) [11] | infection, Sudan [7] | infection, Reston [8] | inhibition of CatL activity [9] | infection, Cote d'Ivoire [10]
1 | CCCNC(=O)[C@H]1O[C@@H]1C(=O)N[C@H](C(=O)N1CCC[C@H]1C(=O)O)[C@@H](C)CC [CA074] | not each alone | Neither compound inhibited | ~10 | unaffected | inhibited infection | ~99 | ~99.9 | markedly reduced | 90 | unaffected | ~100 | ~99 |  |  |  |  |  |  |  | 
2 | CC(C)(C)Oc1ccc(C[C@H](NC(=O)[C@H](Cc2ccccc2)NC(=O)OCc2ccccc2)C(=O)C=[N+]=[N-])cc1 [FYdmk, Z-Phe-Tyr-(tBu)-diazomethylketone] (Cbz-Phe-Tyr(tBu)-CHN2) | not each alone | Neither compound inhibited | ~10 |  | inhibited infection |  |  |  |  |  | ~0 |  | can inhibit | blocked | blocked | dramatically reduces cell-cell fusion; also recorded: inhibits cell-cell fusion | blocked | blocked | can inhibit | blocked
